# According to PubChem BioAssay AID256 (DTP/NCI, 2004):
# “And” between values parts separate entries of the source, which are not always exact repeats. Identical values can stand only once. Inconclusive results and toxic doses are left out.
# Tested on: CD2F1 mice, L1210 leukemia ip, survival T/C
# Test: NCI In Vivo Anticancer Drug Screen. Data for tumor model L1210 Leukemia (intraperitoneal) in CD2F1 (CDF1) mice
# Settings: higher = longer survival
# Summary of the method: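 Mice carrying a transplanted tumor received test compound or vehicle alone. The value is the measurement in the treated group divided by that in the vehicle-treated control group.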
# [1] = endpoint: mean survival time, dose: 100.0 mg/kg/injection, schedule: Q01DX001 (ip), vehicle: saline with Tween-80
# [2] = endpoint: mean survival time, dose: 100.0 mg/kg/injection, schedule: Q01DX009 (ip), vehicle: saline with Tween-80
# [3] = endpoint: mean survival time, dose: 100.0 mg/kg/injection, schedule: Q04DX002 (ip), vehicle: saline with Tween-80
# [4] = endpoint: mean survival time, dose: 100.0 mg/kg/injection, schedule: Q04DX003 (ip), vehicle: saline with Tween-80
# [5] = endpoint: mean survival time, dose: 200.0 mg/kg/injection, schedule: Q01DX001 (ip), vehicle: saline with Tween-80
# [6] = endpoint: mean survival time, dose: 200.0 mg/kg/injection, schedule: Q01DX009 (ip), vehicle: saline with Tween-80
# [7] = endpoint: mean survival time, dose: 200.0 mg/kg/injection, schedule: Q04DX002 (ip), vehicle: saline with Tween-80
# [8] = endpoint: mean survival time, dose: 200.0 mg/kg/injection, schedule: Q04DX003 (ip), vehicle: saline with Tween-80
# [9] = endpoint: mean survival time, dose: 400.0 mg/kg/injection, schedule: Q01DX001 (ip), vehicle: saline with Tween-80
# [10] = endpoint: mean survival time, dose: 400.0 mg/kg/injection, schedule: Q01DX009 (ip), vehicle: saline with Tween-80
# [11] = endpoint: mean survival time, dose: 400.0 mg/kg/injection, schedule: Q04DX002 (ip), vehicle: saline with Tween-80
# [12] = endpoint: mean survival time, dose: 400.0 mg/kg/injection, schedule: Q04DX003 (ip), vehicle: saline with Tween-80
# [13] = endpoint: mean survival time, dose: 100.0 mg/kg/injection, schedule: Q04DX003 (ip), vehicle: Klucel (hydroxypropylcellulose) (HPC)
# [14] = endpoint: mean survival time, dose: 200.0 mg/kg/injection, schedule: Q04DX003 (ip), vehicle: Klucel (hydroxypropylcellulose) (HPC)
# [15] = endpoint: mean survival time, dose: 100.0 mg/kg/injection, schedule: Q01DX001 (ip), vehicle: saline
# [16] = endpoint: mean survival time, dose: 200.0 mg/kg/injection, schedule: Q01DX001 (ip), vehicle: saline
structure (smiles),measurement,setting,value
O=C(/C=C/c1ccccc1)NC(=S)Nc1cc(Cl)ccc1Cl,T/C,"endpoint: mean survival time, dose: 50.0 mg/kg/injection, schedule: Q01DX009 (ip), vehicle: saline with Tween-80",95 % of control
same,T/C,[1],90 % of control
same,T/C,[2],112 % of control and 98 % of control and 100 % of control
same,T/C,[3],95 % of control and 102 % of control
same,T/C,[4],104 % of control
same,T/C,[5],100 % of control
same,T/C,[6],97 % of control and 98 % of control and 105 % of control
same,T/C,[7],95 % of control and 110 % of control
same,T/C,[8],104 % of control
same,T/C,[9],105 % of control
same,T/C,[10],115 % of control and 98 % of control and 100 % of control
same,T/C,[11],105 % of control and 111 % of control
same,T/C,[12],106 % of control
O=C(C[n+]1cc2ccccc2cc1Cl)c1ccccc1,T/C,[13],97 % of control
same,T/C,[14],88 % of control
C#CCn1c2ccccc2c2ccccc21,T/C,"endpoint: mean survival time, dose: 100.0 mg/kg/injection, schedule: Q04DX003 (ip), vehicle: saline",106 % of control
same,T/C,"endpoint: mean survival time, dose: 200.0 mg/kg/injection, schedule: Q04DX003 (ip), vehicle: saline",98 % of control
same,T/C,"endpoint: mean survival time, dose: 400.0 mg/kg/injection, schedule: Q04DX003 (ip), vehicle: saline",104 % of control
C/C=C(/C)C(=O)O[C@H]1CC[C@@]2(C)[C@@H]3CC[C@H]4[C@]5(O)C[C@H](O)[C@@]6(O)[C@@H](CN7C[C@@H](C)CC[C@H]7[C@@]6(C)O)[C@]5(O)C[C@@]42O[C@@]13O,T/C,"endpoint: mean survival time, dose: 0.5 mg/kg/injection, schedule: Q01DX009 (ip), vehicle: saline with Tween-80",101 % of control
same,T/C,"endpoint: mean survival time, dose: 1.0 mg/kg/injection, schedule: Q01DX009 (ip), vehicle: saline with Tween-80",101 % of control
same,T/C,"endpoint: mean survival time, dose: 2.0 mg/kg/injection, schedule: Q01DX009 (ip), vehicle: saline with Tween-80",101 % of control
C=C1C(=O)OCC2CCCCC12C (stereo unspecified),T/C,"endpoint: mean survival time, dose: 1.25 mg/kg/injection, schedule: Q01DX009 (ip), vehicle: saline with Tween-80",98 % of control
same,T/C,"endpoint: mean survival time, dose: 2.5 mg/kg/injection, schedule: Q01DX009 (ip), vehicle: saline with Tween-80",101 % of control
same,T/C,"endpoint: mean survival time, dose: 5.0 mg/kg/injection, schedule: Q01DX009 (ip), vehicle: saline with Tween-80",101 % of control
same,T/C,"endpoint: mean survival time, dose: 10.0 mg/kg/injection, schedule: Q01DX009 (ip), vehicle: saline with Tween-80",98 % of control
CN[C@H]1CCc2cc(OC)c(OC)c(OC)c2-c2ccc(OC)c(=O)cc21,T/C,"endpoint: mean survival time, dose: 0.63 mg/kg/injection, schedule: Q01DX009 (ip), vehicle: saline",113 % of control and 105 % of control
same,T/C,"endpoint: mean survival time, dose: 0.63 mg/kg/injection, schedule: Q01DX009 (ip), vehicle: water",97 % of control and 101 % of control
same,T/C,"endpoint: mean survival time, dose: 1.25 mg/kg/injection, schedule: Q01DX009 (ip), vehicle: saline",113 % of control and 116 % of control
same,T/C,"endpoint: mean survival time, dose: 1.25 mg/kg/injection, schedule: Q01DX009 (ip), vehicle: water",118 % of control and 108 % of control
same,T/C,"endpoint: mean survival time, dose: 2.5 mg/kg/injection, schedule: Q01DX007 (ip), vehicle: saline",121 % of control
same,T/C,"endpoint: mean survival time, dose: 2.5 mg/kg/injection, schedule: Q01DX009 (ip), vehicle: saline",121 % of control and 123 % of control and 124 % of control
same,T/C,"endpoint: mean survival time, dose: 2.5 mg/kg/injection, schedule: Q01DX009 (ip), vehicle: water",116 % of control and 107 % of control
same,T/C,"endpoint: mean survival time, dose: 2.5 mg/kg/injection, schedule: Q03DX003 (ip), vehicle: saline",102 % of control
same,T/C,"endpoint: mean survival time, dose: 2.5 mg/kg/injection, schedule: Q04DX003 (ip), vehicle: saline",95 % of control
same,T/C,"endpoint: mean survival time, dose: 5.0 mg/kg/injection, schedule: Q01DX007 (ip), vehicle: saline",122 % of control
same,T/C,"endpoint: mean survival time, dose: 5.0 mg/kg/injection, schedule: Q01DX009 (ip), vehicle: saline",120 % of control
same,T/C,"endpoint: mean survival time, dose: 5.0 mg/kg/injection, schedule: Q01DX009 (ip), vehicle: water",118 % of control
same,T/C,"endpoint: mean survival time, dose: 5.0 mg/kg/injection, schedule: Q03DX003 (ip), vehicle: saline",115 % of control
same,T/C,"endpoint: mean survival time, dose: 5.0 mg/kg/injection, schedule: Q04DX003 (ip), vehicle: saline",105 % of control
same,T/C,"endpoint: mean survival time, dose: 10.0 mg/kg/injection, schedule: Q01DX009 (ip), vehicle: water",124 % of control and 108 % of control
same,T/C,"endpoint: mean survival time, dose: 10.0 mg/kg/injection, schedule: Q04DX003 (ip), vehicle: saline",101 % of control
same,T/C,"endpoint: median survival time, dose: 0.63 mg/kg/injection, schedule: Q01DX009 (ip), vehicle: saline",114 % of control and 100 % of control
same,T/C,"endpoint: median survival time, dose: 1.25 mg/kg/injection, schedule: Q01DX009 (ip), vehicle: saline",114 % of control and 100 % of control
same,T/C,"endpoint: median survival time, dose: 2.5 mg/kg/injection, schedule: Q01DX009 (ip), vehicle: saline",121 % of control and 111 % of control
same,T/C,"endpoint: median survival time, dose: 5.0 mg/kg/injection, schedule: Q01DX009 (ip), vehicle: saline",150 % of control
COc1ccccc1OC(=O)CCl,T/C,[4],111 % of control
same,T/C,[8],101 % of control
same,T/C,[12],88 % of control
Cc1c2cc[n+](CCN3CCCCC3)cc2c(C)c2c1[nH]c1ccc(O)cc12,T/C,"endpoint: mean survival time, dose: 1.56 mg/kg/injection, schedule: Q01DX009 (ip), vehicle: suspension in saline",160 % of control
same,T/C,"endpoint: mean survival time, dose: 12.5 mg/kg/injection, schedule: Q01DX009 (ip), vehicle: saline",150 % of control
same,T/C,"endpoint: mean survival time, dose: 12.5 mg/kg/injection, schedule: Q01DX009 (ip), vehicle: suspension in saline",121 % of control
same,T/C,"endpoint: mean survival time, dose: 50.0 mg/kg/injection, schedule: Q01DX009 (ip), vehicle: saline",188 % of control
same,T/C,"endpoint: mean survival time, dose: 50.0 mg/kg/injection, schedule: Q01DX009 (ip), vehicle: suspension in saline",92 % of control
O=C1NC(=O)C2CC(Br)C(Br)CC12 (stereo unspecified),T/C,"endpoint: mean survival time, dose: 5.0 mg/kg/injection, schedule: Q01DX001 (ip), vehicle: saline",103 % of control
same,T/C,"endpoint: mean survival time, dose: 10.0 mg/kg/injection, schedule: Q01DX001 (ip), vehicle: saline",101 % of control
same,T/C,"endpoint: mean survival time, dose: 20.0 mg/kg/injection, schedule: Q01DX001 (ip), vehicle: saline",100 % of control
CCCCCCCCCCOc1ccc(Cl)cc1Cl,T/C,[3],101 % of control
same,T/C,[7],101 % of control
same,T/C,[11],90 % of control
COc1ccc(NCC(=O)O)c([N+](=O)[O-])c1,T/C,[4],91 % of control
same,T/C,[8],101 % of control
c1ccc2nc(C3CO3)cnc2c1 (stereo unspecified),T/C,"endpoint: mean survival time, dose: 50.0 mg/kg/injection, schedule: Q04DX003 (ip), vehicle: saline with Tween-80",100 % of control
same,T/C,[4],96 % of control
same,T/C,[8],97 % of control
CCCCCCN(CCCCCC)CP(=O)(CN(CCCCCC)CCCCCC)CN(CCCCCC)CCCCCC,T/C,[1],95 % of control
same,T/C,[5],104 % of control
same,T/C,[9],104 % of control
C=CCOC1C=CCCC1 (stereo unspecified),T/C,"endpoint: mean survival time, dose: 100.0 mg/kg/injection, schedule: Q04DX002 (ip), vehicle: saline",100 % of control
same,T/C,"endpoint: mean survival time, dose: 200.0 mg/kg/injection, schedule: Q04DX002 (ip), vehicle: saline",100 % of control
same,T/C,"endpoint: mean survival time, dose: 400.0 mg/kg/injection, schedule: Q04DX002 (ip), vehicle: saline",91 % of control
COC(=O)CCCC1CCC(=NNc2ccc([N+](=O)[O-])cc2[N+](=O)[O-])CC1 (stereo unspecified),T/C,[4],86 % of control
same,T/C,[8],96 % of control
same,T/C,[12],93 % of control
O=C(O)COc1ccc(Cl)cc1Cl.[Cr],T/C,[3],94 % of control
same,T/C,[7],87 % of control
same,T/C,[11],102 % of control
CC(=O)C1CCC2C3CC=C4CC(n5cc(C)c(=O)[nH]c5=O)CCC4(C)C3CCC12C (stereo unspecified),T/C,"endpoint: mean survival time, dose: 12.5 mg/kg/injection, schedule: Q04DX003 (ip), vehicle: Klucel (hydroxypropylcellulose) (HPC)",90 % of control
same,T/C,"endpoint: mean survival time, dose: 25.0 mg/kg/injection, schedule: Q01DX001 (ip), vehicle: Klucel (hydroxypropylcellulose) (HPC)",95 % of control
same,T/C,"endpoint: mean survival time, dose: 25.0 mg/kg/injection, schedule: Q04DX003 (ip), vehicle: Klucel (hydroxypropylcellulose) (HPC)",96 % of control
same,T/C,"endpoint: mean survival time, dose: 50.0 mg/kg/injection, schedule: Q01DX001 (ip), vehicle: Klucel (hydroxypropylcellulose) (HPC)",100 % of control
same,T/C,"endpoint: mean survival time, dose: 50.0 mg/kg/injection, schedule: Q04DX003 (ip), vehicle: Klucel (hydroxypropylcellulose) (HPC)",94 % of control
same,T/C,"endpoint: mean survival time, dose: 100.0 mg/kg/injection, schedule: Q01DX001 (ip), vehicle: Klucel (hydroxypropylcellulose) (HPC)",88 % of control
same,T/C,[13],100 % of control
same,T/C,"endpoint: mean survival time, dose: 200.0 mg/kg/injection, schedule: Q01DX001 (ip), vehicle: Klucel (hydroxypropylcellulose) (HPC)",91 % of control
same,T/C,[14],102 % of control
same,T/C,"endpoint: mean survival time, dose: 400.0 mg/kg/injection, schedule: Q01DX001 (ip), vehicle: Klucel (hydroxypropylcellulose) (HPC)",95 % of control
CC(=O)COc1cccc(C)c1,T/C,[4],100 % of control
same,T/C,[8],103 % of control
same,T/C,[12],93 % of control
COc1cc(-c2ccc3cc(OC)c(OC)c(OC)c3c2)cc(OC)c1OC,T/C,[2],96 % of control
same,T/C,[6],98 % of control
same,T/C,[10],96 % of control
O=C(O)c1cc(N2CCCCC2)ccn1,T/C,[15],94 % of control
same,T/C,[16],100 % of control
NC(=S)N/N=C/C(=O)c1ccc(Br)cc1,T/C,[15],102 % of control
same,T/C,[16],100 % of control
